Data taken from patent publication US10328083B1, “Compositions and methods for treating stroke” (University of South Florida, priority 2012, dated 2019).
Structures can show the parent of a compound that is named as a salt.

Key:
Type in all cases: in vivo
[1] = system: permanent middle cerebral artery occlusion (MCAO) in rats; assay: Mortality rate prior to euthanization after permanent MCAO; details: for FD: jugular catheter, up to 48 h post MCAO
Protocol: (§1) Permanent middle cerebral artery occlusion (MCAO) was induced in rats. Post MCAO, conivaptan was administered to the rat via jugular catheter at varying times and dosages. The conivaptan used was VAPRISOL® which is a conivaptan hydrochloride premixed in 5% dextrose at 20 mg/100 ml in 100 ml IV bag. The conivaptan was purchased from Astellas Pharma USA, Inc. (lot#0789065) and sub-aliquoted into sterile foil-covered vials.
(§2) For rats receiving the 6-hour treatment, 0.5 ml (0.35 mg/kg) bolus conivaptan was administered six hours post MCAO, followed by administrations of 0.1 ml (0.07 mg/kg) conivaptan at nine hours post MCAO. At 20, 24, 28, and 32 hours post MCAO, 0.1 ml (0.07 mg/kg) conivaptan was administered. A saline control (1.4 ml of 0.9% saline) was then injected at 44 hours post MCAO. At 48 hours post MCAO, the rats were euthanized.
(§3) For rats receiving the 24-hour treatment, 0.5 ml (0.35 mg/kg) bolus conivaptan was administered 24 hours post MCAO, followed by administrations of 0.1 ml (0.07 mg/kg) conivaptan at 20, 24, 28 and 32 hours post MCAO. Saline controls (1.4 ml of 0.9% saline) were injected at 6, 9, and 44 hours post MCAO. At 48 hours post MCAO, the rats were euthanized.
The mortality rate prior to euthanization is provided below in Table 1: […]

[2] = system: permanent middle cerebral artery occlusion (MCAO) in rats; assay: Fluoro-Jade staining of neural biopsies from the site of the infarct after permanent MCAO
Protocol: as §1, §2, §3
Fluoro-Jade staining of neural biopsies obtained from the site of the infarct was also performed and the results are shown in Table 2.

[3] = system: permanent middle cerebral artery occlusion (MCAO) in rats; assay: Results of treatment post MCAO (Table 3; CD11b staining of infarct and surrounding areas per FIGS. 2-4); details: treatment started 6 h post MCAO; rats euthanized at 48 h post MCAO
Protocol: FIG. 1 is a table showing the conivaptan treatment regimens. The five treatment groups were normal saline (control)[NS], 5% saline infusion+5% saline maintenance [5% IM], conivaptan only [C], conivaptan+5% saline maintenance [C5% M], and conivaptan+5% saline infusion+5% saline maintenance [C5% IM]. (Euth.=euthanized).
FIG. 4 is a graph showing the average area fraction of CD11b staining at 48 hours post MCAO following the various treatments.
as §1, with “MCAO, conivaptan, hyper saline or normal saline” for “MCAO, conivaptan”, “the rats” for “the rat”, “was Vaprisol®” for “was VAPRISOL®”, “vials. Hyper saline solutions were 5% NaCl. Saline solutions were 0.9% NaCl.” for “vials.”
as §2, with “six-hour” for “6-hour”, “6” for “six”, “9” for “nine”, “euthanized. […]” for “euthanized.”

Cc1nc2c([nH]1)-c1ccccc1N(C(=O)c1ccc(NC(=O)c3ccccc3-c3ccccc3)cc1)CC2 [conivaptan, conivaptan hydrochloride]
FD ([1]; 6-hour treatment: 0.35 mg/kg bolus 6 h post MCAO, then 0.07 mg/kg at 9, 20, 24, 28, 32 h): 2 | % Survival ([1]; 6-hour treatment, prior to euthanization at 48 h post MCAO): 78% | % Survival (total) ([1]; 6-hour treatment, value in brackets (total), prior to euthanization at 48 h post MCAO): 82% | FD ([1]; 24-hour treatment: 0.35 mg/kg bolus 24 h post MCAO, then 0.07 mg/kg doses): 4 | % Survival ([1]; 24-hour treatment, prior to euthanization at 48 h post MCAO): 56% | Fluoro-Jade staining Avg ([2]; 6-hour treatment, n = 7, p = .06 compared to controls): 38.331 g | decrease in Fluoro-Jade staining compared to controls ([2]; 6-hour treatment, p = .06): *p = .06 compared to controls 37% decrease | Fluoro-Jade staining Avg ([2]; 24-hour treatment, n = 5, p = 0.3 compared to controls): 55.388 g | Avg (Table 3, results of treatment) [3]: 0.486
